Assay results reported in PMC8132113 (Cancer letters, 2019).

Molecular target: ABCB1 (Homo sapiens, UniProt P08183)
Assay: vanadate-sensitive ATPase assay
Format: biochemical

Sequence of ABCB1 (P08183 whole entry): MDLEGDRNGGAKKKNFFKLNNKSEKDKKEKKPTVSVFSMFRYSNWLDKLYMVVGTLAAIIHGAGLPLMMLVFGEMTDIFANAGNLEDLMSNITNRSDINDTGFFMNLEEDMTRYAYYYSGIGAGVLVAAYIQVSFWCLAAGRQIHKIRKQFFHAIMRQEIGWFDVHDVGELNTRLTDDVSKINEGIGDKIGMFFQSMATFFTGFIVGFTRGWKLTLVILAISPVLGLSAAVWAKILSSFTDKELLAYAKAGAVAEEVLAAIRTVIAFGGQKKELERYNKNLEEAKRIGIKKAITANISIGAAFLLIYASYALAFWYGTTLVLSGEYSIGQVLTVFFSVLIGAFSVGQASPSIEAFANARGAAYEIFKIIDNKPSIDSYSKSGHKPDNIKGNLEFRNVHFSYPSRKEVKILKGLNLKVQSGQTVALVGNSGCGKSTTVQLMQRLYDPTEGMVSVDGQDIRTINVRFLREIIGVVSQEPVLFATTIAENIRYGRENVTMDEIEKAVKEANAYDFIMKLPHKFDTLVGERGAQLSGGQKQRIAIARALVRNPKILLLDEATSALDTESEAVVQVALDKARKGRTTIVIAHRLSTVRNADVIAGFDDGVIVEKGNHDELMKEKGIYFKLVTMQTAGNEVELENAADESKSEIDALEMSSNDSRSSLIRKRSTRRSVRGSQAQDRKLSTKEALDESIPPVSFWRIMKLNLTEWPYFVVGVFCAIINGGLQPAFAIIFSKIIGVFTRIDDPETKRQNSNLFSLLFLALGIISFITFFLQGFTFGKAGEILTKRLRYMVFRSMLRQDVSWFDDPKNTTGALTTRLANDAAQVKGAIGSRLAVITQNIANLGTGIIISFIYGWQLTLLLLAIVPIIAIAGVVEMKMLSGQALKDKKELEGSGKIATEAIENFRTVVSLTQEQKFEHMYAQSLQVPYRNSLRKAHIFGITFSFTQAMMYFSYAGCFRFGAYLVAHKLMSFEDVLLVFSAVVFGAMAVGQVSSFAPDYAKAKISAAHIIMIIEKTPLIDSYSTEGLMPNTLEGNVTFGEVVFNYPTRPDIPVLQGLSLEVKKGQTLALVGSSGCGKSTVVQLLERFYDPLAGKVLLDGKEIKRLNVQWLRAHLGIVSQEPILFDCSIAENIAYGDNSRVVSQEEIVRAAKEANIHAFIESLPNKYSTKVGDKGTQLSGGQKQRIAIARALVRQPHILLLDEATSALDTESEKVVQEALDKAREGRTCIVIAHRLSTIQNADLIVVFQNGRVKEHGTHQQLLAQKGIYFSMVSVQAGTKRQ

Work on `CO[C@@H]1[C@H](N(C)C(=O)c2ccccc2)C[C@H]2O[C@]1(C)n1c3ccccc3c3c4c(c5c6ccccc6n2c5c31)C(=O)NC4` [midostaurin] yielded an IC50 of about 10 µM.
